Reference: ChEMBL document CHEMBL1140602, “A simple, yet highly accurate, QSAR model captures the complement inhibitory activity of compstatin” (Bioorg Med Chem, 2007)
Positions of bridges follow the written chain, without caps; N, C: chain ends. Residues, ends and D or L forms follow the SMILES beside them.

Experiment: Inhibition of C3b activation relative to compstatin

SMILES | logIC50
CC(C)[C@@H]1NC(=O)[C@H](C(C)C)NC(=O)[C@@H](N)CSSC[C@@H](C(=O)O)NC(=O)[C@H](C)NC(=O)[C@H](Cc2cnc[nH]2)NC(=O)[C@H](Cc2cnc[nH]2)NC(=O)CNC(=O)[C@H](Cc2c[nH]c3ccccc23)NC(=O)[C@H](CC(=O)O)NC(=O)[C@H](CCC(N)=O)NC1=O (H-CVVQDWGHHAC-OH; disulfide 1-11) | -0.767
CC(C)[C@@H]1NC(=O)[C@H](C(C)C)NC(=O)[C@@H](N)CSSC[C@@H](C(N)=O)NC(=O)[C@H](CCCNC(=N)N)NC(=O)[C@H](Cc2cnc[nH]2)NC(=O)[C@H](Cc2cnc[nH]2)NC(=O)CNC(=O)[C@H](Cc2c[nH]c3ccccc23)NC(=O)[C@H](CC(=O)O)NC(=O)[C@H](CCC(N)=O)NC1=O (H-CVVQDWGHHRC-NH2; disulfide 1-11) | -0.439
CC(C)[C@@H]1NC(=O)[C@H](C(C)C)NC(=O)[C@@H](N)CSSC[C@@H](C(=O)O)NC(=O)[C@H](CCCNC(=N)N)NC(=O)[C@H](Cc2cnc[nH]2)NC(=O)[C@H](Cc2cnc[nH]2)NC(=O)CNC(=O)[C@H](Cc2c[nH]c3ccccc23)NC(=O)[C@H](CC(=O)O)NC(=O)[C@H](CCC(N)=O)NC1=O (H-CVVQDWGHHRC-OH; disulfide 1-11) | -0.439
CC(C)[C@@H]1NC(=O)[C@H](C(C)C)NC(=O)[C@@H](N)CSSC[C@@H](C(=O)N[C@H](C(N)=O)[C@@H](C)O)NC(=O)[C@H](CCCNC(=N)N)NC(=O)[C@H](Cc2cnc[nH]2)NC(=O)[C@H](Cc2cnc[nH]2)NC(=O)CNC(=O)[C@H](Cc2c[nH]c3ccccc23)NC(=O)[C@H](CC(=O)O)NC(=O)[C@H](CCC(N)=O)NC1=O (H-CVVQDWGHHRCT-NH2; disulfide 1-11) | -0.319
CC(C)[C@@H]1NC(=O)[C@@H](NC(=O)[C@@H](N)CC(=O)O)CSSC[C@@H](C(=O)N[C@H](C(N)=O)[C@@H](C)O)NC(=O)[C@H](CCCCN)NC(=O)[C@H](Cc2cnc[nH]2)NC(=O)[C@H](Cc2cnc[nH]2)NC(=O)CNC(=O)[C@H](Cc2c[nH]c3ccccc23)NC(=O)[C@H](CC(=O)O)NC(=O)[C@H](CCC(N)=O)NC(=O)[C@H](C(C)C)NC1=O (H-DCVVQDWGHHKCT-NH2; disulfide 2-12) | -0.264
CC[C@H](C)[C@H](N)C(=O)N[C@H]1CSSC[C@@H](C(=O)N[C@H](C(N)=O)[C@@H](C)O)NC(=O)[C@H](CCCCN)NC(=O)[C@H](Cc2cnc[nH]2)NC(=O)[C@H](Cc2cnc[nH]2)NC(=O)CNC(=O)[C@H](Cc2c[nH]c3ccccc23)NC(=O)[C@H](CC(=O)O)NC(=O)[C@H](CCC(N)=O)NC(=O)[C@H](C(C)C)NC(=O)[C@H](C(C)C)NC1=O (H-ICVVQDWGHHKCT-NH2; disulfide 2-12) | -0.226
CC(C)C[C@H](N)C(=O)N[C@H]1CSSC[C@@H](C(=O)NCC(N)=O)NC(=O)[C@H](CCCNC(=N)N)NC(=O)[C@H](Cc2cnc[nH]2)NC(=O)[C@H](Cc2c[nH]c3ccccc23)NC(=O)CNC(=O)[C@H](Cc2c[nH]c3ccccc23)NC(=O)[C@H](CC(=O)O)NC(=O)[C@H](CCC(N)=O)NC(=O)[C@H](C(C)C)NC(=O)[C@H](C(C)C)NC1=O (H-LCVVQDWGWHRCG-NH2; disulfide 2-12) | 0.617
CC(C)C[C@@H]1NC(=O)[C@H](CCCNC(=N)N)NC(=O)CNC(=O)[C@H](Cc2c[nH]c3ccccc23)NC(=O)[C@H](CC(=O)O)NC(=O)[C@H](CCC(N)=O)NC(=O)[C@H](Cc2ccccc2)NC(=O)[C@H](C(C)C)NC(=O)[C@@H](NC(=O)[C@@H](N)CO)CSSC[C@@H](C(=O)N2CCC[C@H]2C(N)=O)NC(=O)[C@H](C)NC1=O (H-SCVFQDWGRLACP-NH2; disulfide 2-12) | -0.301
